In publication PMC4393269, “Carvacrol Codrugs: A New Approach in the Antimicrobial Plan” (PLoS ONE, 2015):
Values after ≈ are worked out from the molar mass of the structure shown.

Assays:
Assay type in all cases: cell-based
E. coli ATCC 8739 [1] = test: Broth microdilution MIC/MBC on planktonic cells; details: Escherichia coli, ATCC8739
Procedure: (§1) Two Gram-positive (S. aureus ATCC 29213 and S. epidermidis ATCC 35984) and two Gram-negative (E. coli ATCC 8739 and P. aeruginosa ATCC 9027) strains, and one fungal strain (C. albicans ATCC 10231) were used for the detection of antibacterial activity of carvacrol, NAC, Ac-Cys(Allyl)-OH, and carvacrol codrugs 1–10. All tested compounds were dissolved in 20% DMSO to prepare the stock solution (100 mg/mL). The final concentration of DMSO in each well appeared to be not toxic for all studied microorganisms, as confirmed by the solvent control test included in the study.
(§2) The effects of carvacrol codrugs 1–10 and reference compounds on planktonic cells were evaluated by Minimum Inhibitory Concentration (MIC) and Minimum Bactericidal Concentration (MBC) determination using the broth microdilution method according to EUCAST guidelines. Bacterial suspensions, grown in Mueller–Hinton Broth (MHB) at logarithmic phase, were incubated on microtiter plates at a concentration of 5 x 10^5 CFU/mL, with several dilutions (0.07–40 mg/mL) for 24 h at 37°C. The MIC was defined as the lowest concentration of substances giving a complete inhibition of visible growth in comparison with a control well, and the MBC was determined as the lowest concentration at which no bacterial growth occurred on Mueller–Hinton Agar plates.
(§3) Data were obtained from at least three independent experiments performed in duplicate. The susceptibility of the bacterial strains against ciprofloxacin was used as an internal standard during MIC determinations.

P. aeruginosa ATCC 9027 [2] = test: Broth microdilution MIC/MBC on planktonic cells; details: Pseudomonas aeruginosa, ATCC9027
Procedure: as §1, §2, §3

S. aureus ATCC 29213 [3] = test: Broth microdilution MIC/MBC on planktonic cells; details: Staphylococcus aureus, ATCC29213
Procedure: as §1, §2, §3

[4] = test system: S. epidermidis ATCC 35984; test: Broth microdilution MIC/MBC on planktonic cells; details: Staphylococcus epidermidis, ATCC35984
Procedure: as §1, §2, §3

C. albicans ATCC 10231 [5] = test: Broth microdilution MIC/MFC; details: Candida albicans, ATCC10231
Procedure: as §1
The MIC detection of C. albicans ATCC 10231 was performed using the broth microdilution method according to EUCAST guidelines in RPMI 1640 plus 2% glucose with a final inoculum of 1–5 x 10^5 CFU/mL for 24–48 h at 37°C. The Minimum Fungicidal Concentration (MFC) was determined as the lowest concentration of substances at which no fungal growth occurred on Sabouraud agar plates.
as §3

[6] = test system: Gram positive and Gram negative tested bacteria; test: Broth microdilution MIC/MBC, range over the bacterial panel; details: bacterial strains of Table 1
Procedure: as §1
as §2, with “plates. […]” for “plates.”

C. albicans ATCC 10231 [7] = test: Antibiofilm assay on established biofilm (BIC/BEC)
Procedure: (§4) The efficacy on established biofilm was evaluated by determining Biofilm Inhibitory Concentration (BIC) and Biofilm Eradication Concentration (BEC) according to the method described by Johnson et al. with some modifications. Bacterial suspensions, grown in Tryptic soy broth supplemented with 0.5% (v/v) glucose at logarithmic phase, as well as C. albicans grown in RPMI 1640 plus 2% glucose, were incubated on flat-bottomed microtiter plates at a concentration of 5 x 10^5 CFU/mL. After 24 h of incubation at 37°C, the planktonic cells were gently removed and wells were washed with sterile phosphate-buffered saline solution (PBS) pH 7.3 and filled with carvacrol, carvacrol codrug 4, Ac-Cys(Allyl)-OH with dilutions ranging from the MIC values to a maximum concentration of 50 mg/mL. The OD600 was measured at time 0 and after incubation for 24 h at 37°C. The BIC values were determined as the lowest concentrations where no growth occurred in the supernatant fluid, confirmed by no increase in optical density compared with the initial reading. The BEC values were determined as the lowest concentrations at which no bacterial growth occurred on Tryptic soy agar for bacteria and on Sabouraud agar for C. albicans. Data were obtained from at least three independent experiments performed in duplicate.

E. coli ATCC 8739 [8] = test: Antibiofilm assay on established biofilm (BIC/BEC)
Procedure: as §4

P. aeruginosa ATCC 9027 [9] = test: Antibiofilm assay on established biofilm (BIC/BEC)
Procedure: as §4

S. aureus ATCC 29213 [10] = test: Antibiofilm assay on established biofilm (BIC/BEC); details: S. aureus ATCC 29213 established biofilm
Procedure: as §4

[11] = test system: S. epidermidis ATCC 35984; test: Antibiofilm assay on established biofilm (BIC/BEC)
Procedure: as §4

MIC (E. coli ATCC 8739 [1]; E. coli ATCC 8739, 24 h at 37°C, read-out: MIC): 2500 µg/mL (≈ 12.3 mM)
MIC (P. aeruginosa ATCC 9027 [2]; P. aeruginosa ATCC 9027, 24 h at 37°C, read-out: MIC): 10000 µg/mL (≈ 49.2 mM)
MIC (S. aureus ATCC 29213 [3]; S. aureus ATCC 29213, 24 h at 37°C, read-out: MIC): 5000 µg/mL (≈ 24.6 mM)
MIC ([4]; S. epidermidis ATCC 35984, 24 h at 37°C, read-out: MIC): 5000 µg/mL (≈ 24.6 mM)
MIC (C. albicans ATCC 10231 [5]; C. albicans ATCC 10231, 24–48 h at 37°C, read-out: MIC): 2500 µg/mL (≈ 12.3 mM)
MIC values (range over strains) [6]: 2500 to 10000 µg/mL
BEC as multiple of MIC (C. albicans ATCC 10231 [7]; C. albicans ATCC 10231): 2MIC
BIC as multiple of MIC (C. albicans ATCC 10231 [7]; C. albicans ATCC 10231): 2MIC
BEC as multiple of MIC (E. coli ATCC 8739 [8]; E. coli ATCC 8739): 8MIC
BIC as multiple of MIC (E. coli ATCC 8739 [8]; E. coli ATCC 8739): 2MIC
BEC as multiple of MIC (P. aeruginosa ATCC 9027 [9]; P. aeruginosa ATCC 9027): 2MIC
BEC as multiple of MIC ([11]; S. epidermidis ATCC 35984): 4MIC
BIC as multiple of MIC ([11]; S. epidermidis ATCC 35984): 4MIC
Compound: C=CCSC[C@H](NC(C)=O)C(=O)O [Ac-Cys(Allyl)-OH, N-Ac-Cys(Allyl)-OH]
MBC (E. coli ATCC 8739 [1]; E. coli ATCC 8739, read-out: MBC): 2500 µg/mL (≈ 12.3 mM)
MBC (P. aeruginosa ATCC 9027 [2]; P. aeruginosa ATCC 9027, read-out: MBC): 10000 µg/mL (≈ 49.2 mM)
MBC (S. aureus ATCC 29213 [3]; S. aureus ATCC 29213, read-out: MBC): 5000 µg/mL (≈ 24.6 mM)
MBC ([4]; S. epidermidis ATCC 35984, read-out: MBC): 5000 µg/mL (≈ 24.6 mM)
MFC (C. albicans ATCC 10231 [5]; C. albicans ATCC 10231, read-out: MFC): 2500 µg/mL (≈ 12.3 mM)
BEC (C. albicans ATCC 10231 [7]; C. albicans ATCC 10231 established biofilm): 5 mg/mL
BIC (C. albicans ATCC 10231 [7]; C. albicans ATCC 10231 established biofilm, 24 h): 5 mg/mL
BEC (E. coli ATCC 8739 [8]; E. coli ATCC 8739 established biofilm): 20 mg/mL
BIC (E. coli ATCC 8739 [8]; E. coli ATCC 8739 established biofilm, 24 h): 5 mg/mL
BEC (P. aeruginosa ATCC 9027 [9]; P. aeruginosa ATCC 9027 established biofilm): 20 mg/mL
BIC (P. aeruginosa ATCC 9027 [9]; P. aeruginosa ATCC 9027 established biofilm, 24 h): 10 mg/mL
BEC (S. aureus ATCC 29213 [10]): 20 mg/mL
BIC (S. aureus ATCC 29213 [10]; 24 h): 10 mg/mL
BEC ([11]; S. epidermidis ATCC 35984 established biofilm): 20 mg/mL
BIC ([11]; S. epidermidis ATCC 35984 established biofilm, 24 h): 20 mg/mL
